The test system of data set [1] is PC-3. Description: Antiproliferative activity against human PC3 cells assessed as reduction in cell viability at 100 uM after 72 hrs by WST8 assay. In kind it is functional, cell-based. (Tetrazolium assays rely on reduction of a dye to a coloured formazan, in cell work by metabolically active cells.)
Data set [2] deals with Bone marrow cell. Briefly: Induction of mineralization in C57BL mouse bone marrow cells co-cultured with human PC3 cells at 50 to 100 nM supplemented with fresh medium containing compound every 3 days for 10 to 15 days by alizarin red dye based assay. In kind it is functional.
Data set [3] relates to RAW264.7. Briefly: Inhibition of RANKL-induced osteoclastogenesis in mouse RAW264.7 cells after 72 hrs by TRAP staining based microscopic analysis. The data set is classed as functional, cell-based.
Data set [4] relates to Bone marrow cell. Description: Induction of mineralization in C57BL mouse bone marrow cells co-cultured with human PC3 cells at >100 nM supplemented with fresh medium containing compound every 3 days for 10 to 15 days by alizarin red dye based assay. In kind it is functional.
For data set [5], the system named is Bone marrow cell. Briefly: Induction of mineralization in C57BL mouse bone marrow cells at >50 nM supplemented with fresh medium containing compound every 3 days for 10 to 15 days by alizarin red dye based assay. The data set is classed as functional.
For data set [6], the system named is MG-63. Description: Antiproliferative activity against human MG63 cells assessed as reduction in cell viability at 100 uM after 72 hrs by WST8 assay. In kind it is functional, cell-based.
The subject of data set [7] is RAW264.7. Description: Antiproliferative activity against mouse RAW264.7 cells assessed as reduction in cell viability at 100 uM after 72 hrs by WST8 assay. The data set is classed as functional, cell-based.
The subject of data set [8] is Bone marrow cell. Briefly: Induction of mineralization in C57BL mouse bone marrow cells at 50 nM supplemented with fresh medium containing compound every 3 days for 10 to 15 days by alizarin red dye based assay. In kind it is functional.
For the next data set, the system named is Hydroxyapatite. Description: Binding affinity to hydroxyapatite at 100 uM using sodium salt form of compound after 5 mins by ESI/MS analysis.
Data set [9] has as its system Bone marrow cell. Briefly: Cytotoxicity against C57BL mouse bone marrow cells assessed as effect on cell proliferation at 0.03 to 500 uM after 72 hrs by crystal violet staining based assay.
Data set [10] relates to MC3T3-E1. Briefly: Induction of mineralization in mouse MC3T3-E1 cells at >500 nM after 10 to 15 days by alizarin red dye based assay. The data set is classed as functional, cell-based.
Data set [11] concerns RAW264.7. Briefly: Antiproliferative activity against RANKL-differentiated mouse RAW264.7 cells assessed as reduction in cell viability at 100 uM after 72 hrs by CCK8 assay. In kind it is functional, cell-based.
Data set [12] deals with J774.A1. Briefly: Antiproliferative activity against mouse J774A.1 cells assessed as reduction in cell viability at 100 uM after 72 hrs by WST8 assay. In kind it is functional, cell-based.
For data set [13], the target named is T1, Farnesyl pyrophosphate synthase (Homo sapiens, UniProt P14324).
T1 sequence (P14324 whole entry): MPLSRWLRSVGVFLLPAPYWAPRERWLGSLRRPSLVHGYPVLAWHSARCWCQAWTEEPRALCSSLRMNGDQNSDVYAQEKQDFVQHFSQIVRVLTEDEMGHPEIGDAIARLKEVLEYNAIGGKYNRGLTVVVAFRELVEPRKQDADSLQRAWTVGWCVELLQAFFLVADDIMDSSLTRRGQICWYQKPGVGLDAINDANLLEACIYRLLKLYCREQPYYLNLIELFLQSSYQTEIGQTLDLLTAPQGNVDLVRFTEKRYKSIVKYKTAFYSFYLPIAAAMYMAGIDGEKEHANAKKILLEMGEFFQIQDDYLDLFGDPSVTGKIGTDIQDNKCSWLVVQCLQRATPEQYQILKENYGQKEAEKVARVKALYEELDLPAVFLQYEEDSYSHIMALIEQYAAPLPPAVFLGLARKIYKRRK
Description: Inhibition of recombinant human C-terminal His6-tagged FPPS expressed in Escherichia coli BL21 using DMAPP and IPP as substrates pretreated for 15 mins followed by substrates addition and measured after 1 hr by colorimetric method.

In data set [14] the test system is RAW264.7. Description: Antiproliferative activity against mouse RAW264.7 cells assessed as reduction in cell proliferation at 500 uM after 72 hrs by crystal violet staining based assay. The data set is classed as functional.
Data set [15] has as its target T2, Farnesyl pyrophosphate synthase (Homo sapiens) (UniProt P14324).
T2 sequence (whole entry): T1 sequence (P14324 whole entry)
Description: Inhibition of recombinant human C-terminal His6-tagged FPPS expressed in Escherichia coli BL21 at 1 to 10 uM using DMAPP and IPP as substrates pretreated for 15 mins followed by substrates addition and measured after 1 hr by colorimetric method relative to control.

Data set [16] concerns MG-63. Briefly: Antiproliferative activity against human MG63 cells assessed as reduction in cell proliferation at 500 uM after 72 hrs by crystal violet staining based assay. The data set is classed as functional.
In data set [17] the test system is Bone marrow cell. Briefly: Induction of cell proliferation in C57BL mouse bone marrow cells at 30 nM after 72 hrs by crystal violet staining based assay. The following applies: 0.03 µM.
Data set [18] relates to J774.A1. Description: Antiproliferative activity against mouse J774A.1 cells assessed as change in cell proliferation at 100 uM after 72 hrs by crystal violet staining based assay relative to control. The data set is classed as functional.
Data set [19] concerns the target T2, Farnesyl pyrophosphate synthase (Homo sapiens). Description: Inhibition of recombinant human C-terminal His6-tagged FPPS expressed in Escherichia coli BL21 at 100 uM using DMAPP and IPP as substrates pretreated for 15 mins followed by substrates addition and measured after 1 hr by colorimetric method relative to control.
The test system of data set [20] is RAW264.7. Briefly: Antiproliferative activity against mouse RAW264.7 cells assessed as change in cell proliferation at 100 uM after 72 hrs by crystal violet staining based assay relative to control. The data set is classed as functional.
Data set [21] concerns PC-3. Briefly: Antiproliferative activity against human PC3 cells assessed as reduction in cell proliferation at 500 uM after 72 hrs by crystal violet staining based assay. In kind it is functional.
The test system of data set [22] is MC3T3-E1. Briefly: Induction of mineralization in mouse MC3T3-E1 cells at 30 to 50 nM after 10 to 15 days by alizarin red dye based assay. In kind it is functional, cell-based.
The test system of data set [23] is PC-3. Briefly: Antiproliferative activity against human PC3 cells assessed as change in cell proliferation at 100 uM after 72 hrs by crystal violet staining based assay relative to control. In kind it is functional.
Data set [24] concerns MG-63. Description: Antiproliferative activity against human MG63 cells assessed as change in cell proliferation at 100 uM after 72 hrs by crystal violet staining based assay relative to control. In kind it is functional.
For data set [25], the system named is J774.A1. Description: Antiproliferative activity against mouse J774A.1 cells assessed as reduction in cell proliferation at 500 uM after 72 hrs by crystal violet staining based assay. The data set is classed as functional.
Data set [26] has as its target T3, Geranylgeranyl pyrophosphate synthase (Homo sapiens) (UniProt O95749).
T3 sequence (whole entry): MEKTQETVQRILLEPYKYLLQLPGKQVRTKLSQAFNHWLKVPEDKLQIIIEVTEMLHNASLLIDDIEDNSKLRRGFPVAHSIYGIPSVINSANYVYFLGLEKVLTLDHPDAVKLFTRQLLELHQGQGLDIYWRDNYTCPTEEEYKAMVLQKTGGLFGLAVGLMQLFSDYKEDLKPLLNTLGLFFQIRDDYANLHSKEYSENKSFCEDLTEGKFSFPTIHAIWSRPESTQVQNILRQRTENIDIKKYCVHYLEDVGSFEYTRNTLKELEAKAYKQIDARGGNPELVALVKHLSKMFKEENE
Description: Inhibition of recombinant human C-terminal His6-tagged GGPPS expressed in Escherichia coli BL21 at 1 to 10 uM using IPP and FPP as substrates pretreated for 15 mins followed by substrates addition and measured after 1 hr by colorimetric method relative to control.

Data set [27] concerns Bone marrow cell. Description: Induction of cell proliferation in C57BL mouse bone marrow cells at 100 nM after 72 hrs by crystal violet staining based assay. The settings on record: 0.1 µM.
Data set [28] deals with Bone marrow cell. Briefly: Cytotoxicity against C57BL mouse bone marrow cells assessed as decrease in cell proliferation at 100 to 500 uM after 72 hrs by crystal violet staining based assay. More on the design: scale not given: the % may be the effect or the level left.
In data set [29] the test system is PC-3. Description: Antiproliferative activity against human PC3 cells assessed as reduction in cell viability at 2.14 uM after 72 hrs by WST8 assay. In kind it is functional, cell-based.
The subject of data set [30] is MG-63. Description: Antiproliferative activity against human MG63 cells assessed as reduction in cell viability at 2.14 uM after 72 hrs by WST8 assay. The data set is classed as functional, cell-based.

The term inhibition denotes the change of the read-out against control, counted positive when it falls. A word on the IC50: it is the midpoint of a concentration-inhibition curve.

The source made the active and inactive calls. No cut-off for these calls is given here.

In the case of `O=P(O)(O)C(O)(Cc1cccnc1)P(=O)(O)O` [RISEDRONIC ACID], the outcome with PC-3 [1], in the data set on MG-63 [6], in the data set on RAW264.7 [7], in the data set with Bone marrow cell [8], with RAW264.7 [11] and in the data set on J774.A1 [12] was Active. The result in the data set with Bone marrow cell [2], with Bone marrow cell [4], with Bone marrow cell [5] and with MC3T3-E1 [10] was inactive. In addition, the inhibition entry in the data set with RAW264.7 [3] is “Active”. In addition, the figures for the Activity in the data set with Hydroxyapatite and in the data set on Bone marrow cell [9] were 87% and “Non-Toxic”, respectively.
Take `O=P(O)(O)C(O)(CNc1ncccn1)P(=O)(O)O`: the IC50 in [13] stood at 310 nM. Also, the result in the data set with RAW264.7 [14], in the data set with MG-63 [16], in the data set with Bone marrow cell [4], in the data set on Bone marrow cell [5], in the data set on PC-3 [21] and in the data set with MC3T3-E1 [10] was inactive. Moreover, the result with J774.A1 [25] was inactive. The result in the data set on PC-3 [1], in the data set with Bone marrow cell [2], with MG-63 [6], with RAW264.7 [7], with Bone marrow cell [8] and in the data set on MC3T3-E1 [22] was Active. Also, the outcome with RAW264.7 [11] and in the data set on J774.A1 [12] was Active. The inhibition was 68 to 79% in [15], 96% in data set [19] and 68 to 79% in data set [26]. For the same molecule, in the data set with RAW264.7 [3], the inhibition entry is “Active”. Besides, the Activity entry in the data set on Bone marrow cell [17] is “Toxic”; in the data set on J774.A1 [18], -31.512%; with RAW264.7 [20] it was -47.365%; with Hydroxyapatite, 90%; in the data set with PC-3 [23] it was -29.682%; in the data set with MG-63 [24], -16.295%.
As to `O.O=P(O)(O)C(O)(Cn1ccnc1)P(=O)(O)O` [ZOLEDRONIC ACID], the outcome in the data set on PC-3 [1], with Bone marrow cell [2], in the data set on MG-63 [6], in the data set on RAW264.7 [7], with Bone marrow cell [8] and in the data set on MC3T3-E1 [22] was Active. For the same molecule, the result in the data set on RAW264.7 [11] and in the data set on J774.A1 [12] was Active. Further, the inhibition result with RAW264.7 [3] was “Active”. Moreover, the result in the data set with Bone marrow cell [4], with Bone marrow cell [5] and with MC3T3-E1 [10] was inactive. Further, the Activity in the data set on J774.A1 [18] was -60.657%; with RAW264.7 [20] it was -54.523%; in the data set on Bone marrow cell [27], “Toxic”; in the data set on Hydroxyapatite it was more than 95%; with Bone marrow cell [28], 20%; in the data set with PC-3 [23] it was -28.408%. Besides, the Activity with MG-63 [24] is reported as -27.901%.
Consider `CN[C@@H]1C[C@H]2O[C@@](C)([C@@H]1OC)n1c3ccccc3c3c4c(c5c6ccccc6n2c5c31)C(=O)NC4`, for which the outcome with PC-3 [29] and with MG-63 [30] was Active.

Source of the values: ChEMBL document CHEMBL4265921, “Novel bisphosphonates with antiresorptive effect in bone mineralization and osteoclastogenesis” (Eur J Med Chem, 2018).
